Measurements reported in ChEMBL document CHEMBL1949629, “Discovery of a second generation agonist of the orphan G-protein coupled receptor GPR119 with an improved profile” (Bioorg Med Chem Lett, 2012).
Converted amounts (≈) assume the structure as drawn.

Legend:
[1] = Solubility in 20% HPbetaCD after 24 hrs; assay type: physicochemical
[2] = Clearance in iv dosed Swiss albino mouse; assay type: ADME, organism-based; details: in vivo
[3] = Clearance in iv dosed Zucker fa/fa rat; assay type: ADME, organism-based; details: in vivo
[4] = Clearance in iv dosed Sprague-Dawley rat; assay type: ADME, organism-based; details: in vivo
[5] = Clearance in iv dosed Cynomolgus monkey; assay type: ADME, organism-based, Macaca fascicularis; details: in vivo
[6] = Clearance in iv dosed Beagle dog; assay type: ADME, organism-based, Canis lupus familiaris; details: in vivo
[7] = Solubility in 40% HPbetaCD after 24 hrs; assay type: physicochemical

| solubility at 24 h [1] [mg/mL] | Structure (SMILES) | further results |
| --- | --- | --- |
| 17.3 (≈ 34.6 mM) | Cc1nc(S(C)(=O)=O)ccc1Nc1ncnc(OC2CCN(C(=O)OC(C)C)CC2)c1C(F)F | – |
| 17 (≈ 35.8 mM) | Cc1nc(S(C)(=O)=O)ccc1Nc1ncnc(OC2CCN(C(=O)OC(C)C)CC2)c1C#N | – |
| 20.4 (≈ 44 mM) | Cc1cc(S(C)(=O)=O)ncc1Nc1ncnc(OC2CCN(C(=O)OC(C)C)CC2)c1C | – |
| – | CC(C)OC(=O)N1CCC(Oc2ncnc3c2cnn3-c2ccc(S(C)(=O)=O)cc2F)CC1 | clearance [2]: 3.83 mL/min/kg; clearance [3]: 7.33 mL/min/kg; clearance [4]: 20 mL/min/kg; clearance [5]: 1.83 mL/min/kg; clearance [6]: 2 mL/min/kg |
| – | Cc1ncccc1Nc1ncnc(OC2CCN(C(=O)OC(C)C)CC2)c1C | solubility at 24 h [7]: 7.7 mg/mL (≈ 20 mM) |
| 17.7 (≈ 36.2 mM) | Cc1nc(S(C)(=O)=O)ccc1Nc1ncnc(OC2CCN(C(=O)OC(C)C)CC2)c1C1CC1 | – |
| 7.8 (≈ 15.1 mM) | Cc1nc(S(C)(=O)=O)ccc1Nc1ncnc(OC2CCN(C(=O)OC(C)C)CC2)c1OC(F)F | – |
| 13.2 (≈ 33.1 mM) | Cc1ccc(Oc2ncnc(OC3CCN(C(=O)OC(C)C)CC3)c2C)c(C)n1 | – |
| 5.1 (≈ 13.1 mM) | Cc1c(Oc2cncc(F)c2)ncnc1OC1CCN(C(=O)OC(C)C)CC1 | – |
| 3.3 (≈ 6.69 mM) | CCOc1c(Nc2ccc(S(C)(=O)=O)nc2C)ncnc1OC1CCN(C(=O)OC(C)C)CC1 | – |
| 24.5 (≈ 51.3 mM) | CCc1c(Nc2ccc(S(C)(=O)=O)nc2C)ncnc1OC1CCN(C(=O)OC(C)C)CC1 | – |
